Data set [1] relates to human glioma cell line U343mga. The data set can be described thus: Cell uptake of boronated compounds (boron content by DCP-AES). It counts as cell-based. The settings on record: U343mga cells, 6 hours incubation, 5×10^−4 M boron; for Boron content expressed as a function of total cell protein, Trial 1: trial 1: 7.2 μg boron/ml culture medium; for Boron content expressed as a function of total cell protein, Trial 2: trial 2: 7.7 μg boron/ml culture medium. How it is done:
(§1) Four different tumour cell lines of human origin, including human glioma cell line U343mga, human hepatocarcinoma cell line Hep3B, human breast adenocarcinoma cell line MCF7 and human sarcoma cell line 4SS, were used for in vitro testing of the purified material from Example 3 (hereinafter designated as BF). Cells were plated on non-coated tissue culture plastics and cultured at 37° C. in incubators with humidified air, equilibrated with 5% CO2. They were grown in recommended tissue culture medium, supplemented with 10% FCS and PEST (penicillin 100 IU/ml and streptomycin […]). For passage of cells, cells were trypsinized with trypsin-EDTA (0.25% trypsin, 0.02% EDTA in phosphate buffered saline (PBS) without calcium and magnesium).
U343 mga cells were plated on Petri dishes at 75% cell density and incubated with one of boric acid (BA), vitamin B12 conjugated boron (BB), 1-4-dihydroxyboryl-phenylalanine (BPA) or BF dissolved in tissue culture medium for 6 hours. All four boronated compounds were added to and dissolved in the tissue culture medium at equimolar concentrations with respect to the boron content (5×10^−4 M boron). Incubations were stopped by removing the boron-containing tissue culture medium and by adding cold PBS buffer for washing excess of medium from cells. Cells were immediately harvested by scraping them off the plastic dish using a rubber policeman. They were collected in cold PBS and pelleted by centrifugation.
(§2) Cell samples were taken for total protein analysis according to a standard Bradford procedure. Cell pellets were processed for boron analysis by Direct Current Plasma-Atomic Emission Spectroscopy (DCP-AES). Samples (50-130 mg) were digested at 60° C. with sulfuric acid/nitric acid (1/1). Triton X-100 and water added to give a concentrations of 50 mg tissue/ml, 15% total acid v/v and 5% Triton X-100 v/v. The boron concentrations were based on a known reference sample.

The test system of a further data set is U343mga cells. As to the kind of experiment: Intracellular retention of boron after withdrawal of boron containing medium. The settings on record: for Boron content in U343mga cells, 0 hour after withdrawal of boron containing medium / Boron content in U343mga cells, 2 hours after withdrawal of boron containing medium / Boron content in U343mga cells, 7 hours after withdrawal of boron containing medium: 18 hours incubation, 5×10^−4 M boron. It counts as cell-based, human. On the procedure:
as §1, §2
U343 mga cells, were plated on Petri dishes at 75% cell density and incubated with one of 1-4-dihydroxyboryl-phenylalanine (BPA) or BF in tissue culture medium for 18 hours. Both boronated compounds were added to the tissue culture medium at equimolar concentrations with respect to the boron content (5×10^−4 M boron). Incubations were stopped by replacing the boron-containing medium with culture medium without boron. Cell samples were harvested at time points 0, 2 and 7 hours where the 0 time point represents immediate after 18 hour incubation of boronated compound.
Cells were washed with cold PBS and harvested by scraping them off the plastic dish using a rubber policeman, collected in cold PBS and pelleted by centrifugation. Cell pellets were analysed for total protein and boron content as described.

The test system of data set [2] is tumour cell lines of human origin. The data set can be described thus: In vitro studies in tumour cell lines: signs of toxicity. The settings on record: Examples 4-6. The data set is classed as cell-based. How it is done: as §1
In data set [3] the test system is human breast adenocarcinoma cell line MCF7. The data set can be described thus: BF uptake by different tumor cells: MCF7. The settings on record: 6 hours incubation. The data set is classed as cell-based. How it is done:
as §1
(§3) Cell samples were taken for total protein analysis according to a standard Bradford procedure. Cell pellets were processed for boron analysis by Direct Current Plasma-Atomic Emission Spectroscopy (DCP-AES). Samples (50-130 mg) were digested at 60° C. with sulfuric acid/nitric acid (1/1). Triton X-100 and water added to give a concentrations of 50 mg tissue/ml, 15% total acid v/v and 5% Triton X-100 v/v. The boron concentrations were based on a known reference sample. […]

For another data set, the system named is U343mga. The data set can be described thus: BF uptake by different tumor cells: U343mga. The settings on record: 6 hours incubation. The data set is classed as cell-based, human. How it is done:
as §1, §3

For data set [4], the system named is human sarcoma cell line 4SS. As to the kind of experiment: BF uptake by different tumor cells: 4SS. The data set is classed as cell-based. The settings on record: 6 hours incubation. How it is done: as §1, §3
In data set [5] the test system is human hepatocarcinoma cell line Hep3B. The data set can be described thus: BF uptake by different tumor cells: Hep3B. It counts as cell-based. The settings on record: 6 hours incubation. On the procedure:
as §1, §3

As to `OB(O)O` [BA, boric acid], in data set [1], the “Boron content expressed as a function of total cell protein, Trial 1” value (from here on “Boron content expressed as a function … Trial 1”) is 8 μg boron/g cell protein.
With `N[C@@H](Cc1ccc(B(O)O)cc1)C(=O)O` [BPA, 1-4-dihydroxyboryl-phenylalanine, reference compound], in data set [1], the “Boron content expressed as a function … Trial 1” value is given as 65 μg boron/g cell protein and the “Boron content expressed as a function of total cell protein, Trial 2” value amounted to 38 μg boron/g cell protein. Also, in the data set with U343mga cells, the “Boron content in U343mga cells, 0 hour after withdrawal of boron containing medium” value is on record as 0.075 μg boron/g cell pellet; the “Boron content in U343mga cells, 2 hours after withdrawal of boron containing medium” value is reported as 0 μg boron/g cell pellet; the “Boron content in U343mga cells, 7 hours after withdrawal of boron containing medium” value stood at 0 μg boron/g cell pellet.
Regarding “N^2-(4-{[(2-amino-4-oxo-3,4-dihydropteridin-6-yl)methyl]amino}benzoyl)-N-{3-[(1R,9S)-2,3,4,5,6,7,8,10,11,12-decaborabicyclo[7.2.1]dodec-1-yl]propyl}-α-glutamine and N^2-(4-{[(2-amino-4-oxo-3,4-dihydropteridin-6-yl)methyl]amino}benzoyl)-N-[3-(2,3,4,5,6,7,8,10,11,12-decaborabicyclo[7.2.1]dodec-1-yl)propyl]-L-glutamine [BF]”, the “Signs of toxicity in in vitro studies” value in data set [2] is recorded as “without any signs of toxicity”. For the same compound, the “Boron content expressed as a function of total cell protein, Low cell density” value came out at 108 μg boron/g cell protein in data set [3] (MCF7, 40-50% (low) cell density); 108 μg boron/g cell protein in the data set with U343mga (40-50% (low) cell density); 263 μg boron/g cell protein in data set [4] (40-50% (low) cell density); 171 μg boron/g cell protein in data set [5] (40-50% (low) cell density). Besides, the “Boron content expressed as a function of total cell protein, High cell density” value in data set [3] (MCF7, 90-100% (high) cell density) came to 169 μg boron/g cell protein; in the data set on U343mga (90-100% (high) cell density), 172 μg boron/g cell protein; in data set [4] (90-100% (high) cell density), 367 μg boron/g cell protein; in data set [5] (90-100% (high) cell density), 219 μg boron/g cell protein. Also, in data set [1], the “Boron content expressed as a function … Trial 1” value worked out at 560 μg boron/g cell protein. In addition, the “Boron content expressed as a function of total cell protein, Trial 2” value in data set [1] is listed as 440 μg boron/g cell protein. For the same compound, in the data set with U343mga cells (7 hours after total depletion of BF in the culture medium), the “Share of the total uptake retained in tumour cells” value was determined as 40%. The “Boron content in U343mga cells, 0 hour after withdrawal of boron containing medium” value with U343mga cells was found to be 0.79 μg boron/g cell pellet. In addition, the “Boron content in U343mga cells, 2 hours after withdrawal of boron containing medium” value with U343mga cells turned out to be 0.59 μg boron/g cell pellet. Besides, in the data set with U343mga cells, the “Boron content in U343mga cells, 7 hours after withdrawal of boron containing medium” value came out at 0.3 μg boron/g cell pellet.

Values taken from patent publication US8183247B2, “Boron compounds useful in BNCT” (Hammercap AB, priority 2005, dated 2012).
